Values of other authors as cited in patent US6455070B1, “Composition for treating symptoms of influenza” (East Park Research, Inc., priority 2001, dated 2002).

System: wide variety of viruses
Conditions: greatest activity under alkaline conditions (pH 7.5)

COC(=O)C1=CO[C@@H](C)[C@@H](C=O)[C@@H]1CC(=O)[O-].COC(=O)C1=CO[C@@H](C)[C@@H](C=O)[C@@H]1CC(=O)[O-].[Ca+2] [calcium elenolate]
in vitro antiviral activity: activity against a wide variety of viruses
